Data as given in patent US5384411A, “Immobilization of PH-sensitive dyes to solid supports” (Hewlett-Packard Company, priority 1991, dated 1995).

Test: pKa of carboxy-sulfonephthaleins bound to aminoethyl cellulose
Type: physicochemical
Details: dye bound to aminoethyl cellulose
Description: The carboxy-sulfonephthaleins of Examples 8A-8C were reacted with a solid support by the following general procedure:
Place 0.5 g aminoethyl cellulose (commercially available from Serva Biochemicals, Westbury, N.Y. 11590 as order no. 45015) in 30 ml of deionized water and set aside. Place 0.2 g of an appropriate dye in 25 ml of pyridine-HCl buffer (pH 5.8). Add the filtered cellulose to this reaction along with 83 mg of N-ethyl-N'-(3-dimethylaminopropyl)carbodimidehydrochloride (EDC). Place the reaction on a shaker overnight at room temperature. Collect the support and wash with large volumes of water, ethanol, acetone, DMF and pH buffers over the course of 2 days. Collect a final colored support. Also, this same procedure was run using aminopropyl silica beads (Serva #43660) in place of cellulose.
The pKa 's of the carboxy-sulfonephenolphthaleins bound to the solid support (aminoethyl cellulose) was determined and are set forth in Table 4 below: […]

Row | Compound | pKa
1 | O=C(O)c1ccc2c(c1)S(=O)(=O)OC2(c1ccc(O)cc1)c1ccc(O)cc1 [Example 8A] | 7.6
2 | O=C(O)c1ccc2c(c1)S(=O)(=O)OC2(c1ccc(O)c(Cl)c1)c1ccc(O)c(Cl)c1 [Example 8B] | 6.2
3 | Cc1cc(O)c(C(C)C)cc1C1(c2cc(C(C)C)c(O)cc2C)OS(=O)(=O)c2cc(C(=O)O)ccc21 [Example 8C] | 9.2

Test: pKa and pH dye properties of amino-phenolphthaleins bound to Sepharose 6B
Type: physicochemical
Details: dye bound to Sepharose 6B
Description: The amino-phenolphthaleins of Examples 2A-2E were reacted with a solid support by the following general procedure:
Place 0.5 g of Sepharose 6B (commercially available from Pharmacia Inc., Piscataway, N.J. as order number 17-0480-01) into deionized water for 30-45 min. to swell. Collect the white gel. In reaction beaker, place 0.3-0.5 g of an appropriate amino-phthalein into 3 ml dioxane and 20 ml of carbonate buffer (pH 10.5). Add the gel and let sit at 35° for 20 hrs. Collect the gel on a glass frit and wash with water, ethanol, acetone and high and low pH buffers. Dialyze the gel against deionized water for 2 days.

Row | Compound | pKa | retention of dye properties after coupling
4 | Nc1cccc2c1C(=O)OC2(c1ccc(O)cc1)c1ccc(O)cc1 [Example 2A] | approximately 10 | 
5 | Cc1cc(C2(c3cc(C)c(O)cc3C)OC(=O)c3c(N)cccc32)c(C)cc1O [Example 2B] | ~12 | 
6 | Nc1cccc2c1C(=O)OC2(c1ccc(O)c(Br)c1)c1ccc(O)c(Br)c1 [Example 2C] |  | no longer retained their dye properties
7 | Nc1cccc2c1C(=O)OC2(c1ccc(O)c(Cl)c1)c1ccc(O)c(Cl)c1 [Example 2D] |  | no longer retained their dye properties

Test: pKa and color change with pH of carboxy-phenolphthaleins bound to Sepharose 4B
Type: physicochemical
Details: dye bound to Sepharose 4B
Description: Place 0.5 g of Sepharose 4B (commercially available from Pharmacia Inc., Piscataway, N.J. as order number 17-0470-01) in 0.5M NaCl for 1 hour and then collect and set aside. Place the appropriate carboxy-phenolphthalein (1.3 mmol) in about 1 ml dimethylformamide and cool to 0° C. in a ice-ethanol bath. […] Leave the reaction at this cold temperature for 15-20 minutes. Then add the Sepharose 4B gel to reaction along with a scoop of benzyltributyl ammonium bromide and 30 ml of borate buffer (pH 9). Place the reaction flask on a shaker overnight at room temperature. Collect the support on a frit and wash with volumes of water, ethanol, acetone and buffered water. Finally, dialyze the support against water for 1-2 days.

Row | Compound | pKa
8 | O=C(O)c1ccc2c(c1)C(=O)OC2(c1ccc(O)cc1)c1ccc(O)cc1 [Example 4A] | 10
9 | O=C(O)c1ccc2c(c1)C(=O)OC2(c1ccc(O)c2ccccc12)c1ccc(O)c2ccccc12 [Example 4E] | > 10
10 | O=C(O)c1ccc2c(c1)C(=O)OC2(c1cc([N+](=O)[O-])c(O)cc1[N+](=O)[O-])c1cc([N+](=O)[O-])c(O)cc1[N+](=O)[O-] [Example 4G] | ~ 4
11 | O=C(O)c1ccc2c(c1)C(=O)OC2(c1cc(Cl)c(O)c([N+](=O)[O-])c1)c1cc(Cl)c(O)c([N+](=O)[O-])c1 [Example 4H] | ~ 5.5
12 | O=C(O)c1ccc2c(c1)C(=O)OC2(c1ccc(O)c(O)c1)c1ccc(O)c(O)c1 [Example 4I] | ~ 7
13 | O=C(O)c1ccc2c(c1)C(=O)OC2(c1cc(O)c(O)cc1[N+](=O)[O-])c1cc(O)c(O)cc1[N+](=O)[O-] [Example 4J] | ~ 6
